One assay concerns FK-binding protein 12. The note with it: no reference given; cited from earlier work.
In assay [1] the test system is myelin oligodendrocyte glycoprotein (MOG)-immunized mouse splenocytes. The experiment in a line: anti-proliferation assay of MOG-restimulated splenocytes from 2D2 mice. The assay is classed as cell-based. Particulars: summary in words; [T20K,W23Bpa]kB1 versus [T20K]kB1, 4 μM. Here is the method: Biological integrity of probes was determined using their reported immunosuppressive activity (Grundemann et al., [2013]; Thell et al., [2016]). Briefly, activity was measured in isolated lymphocytes derived from self-donated human venous blood or mouse splenocytes derived from 2D2 myelin oligodendrocyte glycoprotein specific T-cell receptor transgenic mice on a C57Bl/6 background [C57Bl/6-Tg(Tcra2D2,Tcrb2D2) Kuch/J]. These mice develop spontaneous experimental autoimmune encephalomyelitis, a mouse model of multiple sclerosis. Bioactivity was assessed by T-cell proliferation using FACS or cytokine concentration analysis of interleukin-2 in the supernatant of ex vivo re-stimulated splenocytes for 72 h using an ELISA kit and antibodies from eBioscience® (Grundemann et al., [2013]; Thell et al., [2016]). All experiments were approved according to the European Community rules of animal care with the permission of the Austrian Ministry of Science (BMWF-66.009/0241-II/3B/2011).
If not stated in detail for the respective single experiment the statistical tests were performed using GraphPad Prism 5.04 (GraphPad, La Jolla, CA) using one-way ANOVA with Bonferonni or Dunnett's Post-hoc test. […] Silver stained gel lanes were evaluated by loading various amounts, and then the amount with optimized staining contrast was loaded and used for in-gel protein digestion. […]

The test system of assay [2] is 14-3-3 proteins / 25 kDa protein band in murine splenocyte lysates. Kind of assay: photo-affinity pull down, splenocyte lysate, with competitors. The assay is classed as binding, mouse. Particulars: for competition effect for 14-3-3 proteins (order): competitors at 100-fold molar excess versus bait [T20K,W23Bpa]kB1, in-gel digestion and proteomics. Here is the method:
(§1) Splenocytes or Jurkat cells were lysed with 25 mM Tris-HCl pH 7.4, 40 mM KCl, 2.5 mM MgSO4 2.5 mM CaCl2, 2% (v/v) glycerol, 1 mM EDTA under repeated freeze-thaw cycles and 10 min sonification. All experiments were performed in buffer with 1x complete protease inhibitor cocktail (Hoffman-La Roche, Basel, Switzerland). Cell membranes and debris were pelleted for 30 min at 16,000 × g and the supernatant corresponds to the “soluble cell lysate.” Protein concentration was determined using a bicinchoninic acid assay kit (Thermo Scientific) and DTT (1 mM) was added to keep redox potential constant during binding experiments. Photo-affinity pull down samples were submitted to denaturing sodium dodecyl sulfate polyacrylamide gel electrophoresis (PAGE). For immunoblotting according to earlier published protocols (Gruber et al., [2007]; Bergmayr et al., [2013]) proteins were semi-dry transferred onto a nitrocellulose membrane 0.45 μM (Amersham Protran, GE Healthcare, Austria) using a Fast Semi-dry blotter (Bio-Rad) at 0.25 mA per gel for 1 h. Primary rabbit anti-GFP antibody (1:5,000) was from Invitrogen (A6455), rabbit anti-GST antibody (1:2,500) from Abcam (ab9085), and mouse anti-human calcineurin subunit A antibody (1:2,000) clone BE2.1 from eBioscience. Secondary ECL anti-mouse (NA931V) or ECL anti-rabbit (NA934VS) IgG antibodies (1:10,000) were conjugated with horse radish peroxidase (GE Healthcare). Chemo-luminescence signals were detected on an imaging system FluorChem HD2 (Alpha Innotech, CA, United States). For silver staining protein gels were treated immediately after electrophoresis with fixing solution EtOH/ddH2O/acetic acid 50/40/10% (v/v/v) for 20 min. Gels had to be washed acid free, first with 50% (v/v) EtOH for 10 min and with ddH2O for 2 h. Gels were exposed to sensitization buffer 0.025% Na2S2O3 in ddH2O for 3 min, followed by 2 min wash with ddH2O. Gels were silver loaded using a 0.15% AgNO3 solution for 45 min in the dark. The protein bands were stained in development buffer formaldehyde/Na2CO3 0.04/2% (v/w) under rigorous shaking. The reaction was quenched with 5% (v/v) acetic acid solution and the gels were stored until further processing in the stopping buffer at 4°C. Pixel quantification was carried out using ImageJ v1.47 (National Institute for Health).
Biotin-LC-LC-labeled (ThermoFisher) peptides (1–5 nmoles) with or without (non-biotinylated) competitor (20–100-fold molar excess) were incubated with Jurkat cell or murine splenocyte cell lysates (150–500 μg proteins) for 2 h at 4°C in the presence of protease inhibitors. UV-activation of photo-crosslinking moiety benzophenone was induced by irradiation at 360 nm on ice for 15 min (Stratalinker, Stratagene, CA, United States). […]

For another assay, the system named is GST-tagged 14-3-3β. Kind of assay: co-precipitation of GST-tagged 14-3-3β with cyclotide probe and competitors. The assay is classed as binding. The note with it: immunoblot and far Western blot; 2 h at 4°C; competitors 150–500-fold molar excess. Here is the method:
as §1
Biotin-LC-LC-labeled (ThermoFisher) peptides (1–5 nmoles) with or without ([…]) were incubated with Jurkat cell or murine splenocyte cell lysates (150–500 μg proteins) for 2 h at 4°C in the presence of protease inhibitors. UV-activation of photo-crosslinking moiety benzophenone was induced by irradiation at 360 nm on ice for 15 min (Stratalinker, Stratagene, CA, United States). […]

The next assay concerns 14-3-3 proteins. Particulars: ref Arrendale et al., 2012; cited from earlier work. The source says:
There are generally two types of 14-3-3 ligands: (i) inhibitors or (ii) stabilizers. […] In contrast, 14-3-3 stabilizers enforce a protein-protein interaction and they may account for an increased retention of 14-3-3 complexed proteins in the cytosol or other cellular compartments (Ottmann, [2013]; Bier et al., [2015]).

As to `CO[C@H]1C[C@@H]2CC[C@@H](C)[C@@](O)(O2)C(=O)C(=O)N2CCCC[C@H]2C(=O)O[C@H]([C@H](C)C[C@@H]2CC[C@@H](O)[C@H](OC)C2)CC(=O)[C@H](C)/C=C(\C)[C@@H](O)[C@@H](OC)C(=O)[C@H](C)C[C@H](C)/C=C/C=C/C=C/1C` [rapamycin], the “binding to FK-binding protein 12” value with FK-binding protein 12 is recorded as “binds to the protein FK-binding protein 12”.

As to “CGETCVGGTCNTPGCKCSXPVCTRNGLPV (bicyclic or more) [[T20K,W23Bpa]kB1]”, in assay [1], the “biological activity of probe” value is recorded as “retained biological activity”. Moreover, the “competition effect for 14-3-3 proteins (order)” value in assay [2] was “competition effect in the order [T20K]kB1 < [T20K,W23Bpa]kB1 < R18”. In the assay with GST-tagged 14-3-3β, the “binding of probe [T20K,W23Bpa]kB1 to 14-3-3β in presence of competitor” value is “significantly altered”.

With “PHCVPRDLSWLDLEANMCLP [R18, reference compound]”, the “effect on intensity of protein bands” value in assay [2] (competitor at 100-fold molar excess, silver stained gel) is “did not alter the intensity of protein bands throughout the sample”. Moreover, the “competition effect for 14-3-3 proteins (order)” value in assay [2] was “competition effect in the order [T20K]kB1 < [T20K,W23Bpa]kB1 < R18”. Also, the “binding of probe [T20K,W23Bpa]kB1 to 14-3-3β in presence of competitor” value in the assay on GST-tagged 14-3-3β is on record as “significantly altered”. In the assay with 14-3-3 proteins, the “effect as 14-3-3 inhibitor on Foxo3a” value was “increase Foxo3a nuclear import to induce pro-apoptotic transcriptional activity”.
